Where a name gives a salt, the structure may show the parent alone.
Legend:
Assay type in all cases: in vivo
[1] = test system: Kochia (Kochia scoparia L.); assay: Greenhouse kochia fresh weight reduction from 2,4-D, dicamba, bentazon as influenced by adjuvants; details: no adjuvant
Protocol: Kochia (Kochia scoparia L.) was grown in plastic cones containing a commercial peat-based greenhouse mixture with 5 plants per cone. All growing conditions and herbicide application procedures were similar as explained in Example 2. Herbicides were applied to kochia at the 4 to 6-leaf stage. Herbicide formulation and rates of herbicides and adjuvants are specified in Table 7. Plants were evaluated for herbicide injury and fresh weight reduction 14 days after herbicide application. Data presented are the means of two experiments with four replicates per experiment.
The adjuvants, Activator 90. RTM and Composition 1, were added into soft and hard water carriers (volume per volume concentrations shown in TABLE 7) with 2,4-D at 220 g ae/ha, dicamba at 75 g ae/ha, or bentazon at 200 g ai/ha to prepare the final aqueous spray mixture applied at 80 L/ha on 4 to 6-leaf kochia. TABLE 7 includes the results of assessment made 2 weeks after treatment.

[2] = test system: Wheat (Triticum aestivum L.); assay: Greenhouse wheat fresh weight reduction from glyphosate as influenced by adjuvants; details: adjuvant 1%
Protocol: (§1) Wheat (Triticum aestivum L.), velvetleaf (Abutilion theophrasti Medicus), Roundup Ready.RTM soybean (Glycine max (L.) Merr.), and Roundup Ready.RTM corn (Zea mays L.) were grown in plastic cones containing a commercial peat-based greenhouse mixture. Plants were thinned 1 wk after emergence to seven wheat, three velvetlaf, or one corn or soybean per cone and were watered and fertilized as needed for healthy growth. Natural daylight was supplemented for 16 h photoperiod with metal halide lamps with the light intensity of 450 μE/m^2/s. The greenhouse was maintained at 20° C. at night and 25 ±5° C. during the day. Glyphosate with adjuvants was applied to three-leaf wheat and corn, first-pair leaf velvetleaf, and to first-trifoliolate-leaf soybean using a cabinet laboratory sprayer that delivered 80 L/ha through a 8001 flat fan nozzle at 280 kPa generated by compressed air. Distilled water, Fargo tap water (soft), and two well waters from the Devils Lake, ND, area (hard and high sodium content, respectively) were used as spray carriers. Ion concentrations in these waters are described in TABLE 1. Formulation type and rates of glyphosate and adjuvants are specified in each table. In all greenhouse studies, plants were evaluated for herbicide injury and adjuvant efficacy 14 days after herbicide application. Data presented are the means of two experiments with four replicates per experiment.
The adjuvants, ammonium sulfate, Activator 90. RTM, and mixtures thereof, Surfate.RTM, and Composition 1 were added into water [weight (for solids) or volume (for liquids) per volume concentrations shown in TABLE 2] with glyphosate at 100 g ae/ha to prepare the final aqueous spray mixture applied at 80 L/ha on 2 to 3 leaf wheat. Calcium chloride was added to distilled water to get 0, 125, 250, and 500 mg/L calcium cations. TABLE 2 includes the results of assessment made 2 weeks after treatment.
The adjuvants, Activator 90. RTM, MON 0818, Atplus GTM7, Atplus GTM10 and their mixtures with ammonium sulfate, Surfate.RTM, and Composition 1 were added into three water carriers [weight (for solids) or volume (for liquids) per volume concentrations shown in TABLE 3] with glyphosate (100 g ae/ha) to prepare the final aqueous spray mixture applied at 80 L/ha on 2 to 3 leaf wheat. TABLE 3 includes the results of assessment made 2 weeks after treatment.
The adjuvants, ammonium sulfate, Activator 90.RTM, and mixtures thereof, Surfate.RTM, and Composition 1 were added into two water carriers (weight [for solids] or volume [for liquids] per volume concentrations shown in TABLE 4) with three glyphosate formulations, all at 125 g ae/ha, to.prepare the final aqueous spray mixture applied at 80 L/ha on 2 to 3 leaf wheat. TABLE 4 includes the results of assessment made 2 weeks after treatment.
Various iminodipropionate, betaine, imidazoline, and amine oxide amphoteric surfactants applied with ammonium sulfate and adjuvant formulations containing surfactant and ammonium sulfate, including Composition 1 of present invention, were added into hard water carrier [weight (for solids) or volume (for liquids) per volume concentrations shown in TABLE 5] with glyphosate at 125 g ae/ha to prepare the final aqueous spray mixture applied at 80 L/ha on 2 to 3 leaf wheat. TABLE 5 includes the results of assessment made 2 weeks after treatment.

[3] = test system: velvetleaf (Abutilion theophrasti Medicus); assay: Greenhouse velvetleaf fresh weight reduction from glyphosate as influenced by adjuvants; details: glyphosate (Roundup Ultra Max.RTM) 150 g ae/ha; hard water (Devils Lake, ND, No. 2 - well water); adjuvant 1%
Protocol: as §1, with “experiment. […]” for “experiment.”

SMILES: O=C(O)COc1ccc(Cl)cc1Cl [2,4-D-dimethylamine salt, (2,4-dichlorophenoxy)acetic acid]
- percent fresh weigh reduction ([1]; 2,4-D-dimethylamine salt 220 g ae/ha, water Devils Lake No. 1 (well)): 10%
- percent fresh weigh reduction ([1]; 2,4-D-dimethylamine salt 220 g ae/ha, water Fargo, ND (tap)): 20%

SMILES: N.N.O=S(=O)(O)O [Ammonium sulfate]
- % fresh weight reduction ([2]; Roundup Custom.RTM 125 g ae/ha, water Devils Lake No. 1 (well)): 23%
- % fresh weight reduction ([2]; Roundup Custom.RTM 125 g ae/ha, water Fargo (tap)): 68%
- % fresh weight reduction ([2]; Roundup Ultra Max.RTM 125 g ae/ha, water Devils Lake No. 1 (well)): 43%
- % fresh weight reduction ([2]; Roundup Ultra Max.RTM 125 g ae/ha, water Fargo (tap)): 54%
- % fresh weight reduction ([2]; Touchdown.RTM 125 g ae/ha, water Devils Lake No. 1 (well)): 24%
- % fresh weight reduction ([2]; Touchdown.RTM 125 g ae/ha, water Fargo (tap)): 71%
- % fresh weight reduction ([2]; glyphosate 100 g ae/ha (Roundup Ultra Max.RTM), Ca2+ 0 mg/L, 2 weeks after treatment): 65%
- % fresh weight reduction ([2]; glyphosate 100 g ae/ha (Roundup Ultra Max.RTM), Ca2+ 125 mg/L, 2 weeks after treatment): 72%
- % fresh weight reduction ([2]; glyphosate 100 g ae/ha (Roundup Ultra Max.RTM), Ca2+ 250 mg/L, 2 weeks after treatment): 73%
- % fresh weight reduction ([2]; glyphosate 100 g ae/ha (Roundup Ultra Max.RTM), Ca2+ 500 mg/L, 2 weeks after treatment): 64%
- Fresh weight reduction % [3]: 54%

SMILES: CC(C)N1C(=O)c2ccccc2NS1(=O)=O [bentazon-sodium salt, 3-(1-methylethyl)-(1H)-2,1,3-benzothiadiazin-4(3H)-one 2,2-dioxide]
- percent fresh weigh reduction ([1]; bentazon-sodium salt 200 g ai/ha, water Devils Lake No. 1 (well)): 5%
- percent fresh weigh reduction ([1]; bentazon-sodium salt 200 g ai/ha, water Fargo, ND (tap)): 20%

SMILES: COc1c(Cl)ccc(Cl)c1C(=O)O [dicamba-sodium salt, 3,6-dichloro-2-methoxybenzoic acid]
- percent fresh weigh reduction ([1]; dicamba-sodium salt 75 g ae/ha, water Devils Lake No. 1 (well)): 9%
- percent fresh weigh reduction ([1]; dicamba-sodium salt 75 g ae/ha, water Fargo, ND (tap)): 12%

— patent publication US6645914B1, “Surfactant-ammonium sulfate adjuvant composition for enhancing efficacy of herbicides” (NDSU-Research Foundation, priority 2002, dated 2003)
